Some test systems named below: SW-620 colon; 786-0 renal; MALME-3M melanoma; COLO 205 colon; RPMI-8226 leukemia; LOX IMVI melanoma; OVCAR-4 ovarian; SK-OV-3 ovarian; MCF7 breast; PC-3 prostate.
Common to all, as to assay: growth of human tumour cells (NCI), 48 h

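1) Cells in 96-well plates. 2) Compound, 48 h, 5 concentrations. 3) Linear interpolation between surrounding doses. 4) Unreached endpoint = highest concentration. At the GI50, growth is halved. TGI marks complete inhibition of growth.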

In the case of `CCCCCCCC1(c2ccc(N)cc2)CCC(=O)NC1=O` (stereo unspecified), the TGI in the assay on SW-620 colon was above 100 µM; in the assay on 786-0 renal it was above 100 µM; with MALME-3M melanoma it was above 100 µM; in the assay with COLO 205 colon, 52.5 µM; in the assay with RPMI-8226 leukemia it was 40.8 µM; in the assay on LOX IMVI melanoma it was above 100 µM. Besides, the TGI in the assay on OVCAR-4 ovarian and in the assay on SK-OV-3 ovarian was above 100 µM each time.
For the compound `Cc1ccc(C)c(N2C(=O)C(=O)C(c3nc4ccccc4o3)C(=O)C2=O)c1`, the TGI with SW-620 colon is above 100 µM; in the assay on 786-0 renal, above 100 µM; with MALME-3M melanoma, above 100 µM; with COLO 205 colon, 95.4 µM; in the assay on OVCAR-4 ovarian it was above 100 µM; with SK-OV-3 ovarian it was above 100 µM.
Take `Clc1ccc(-c2c3ccc(=[N+]4CCCCC4)cc-3oc3cc(N4CCCCC4)ccc23)cc1`: in the assay on 786-0 renal, the GI50 is 0.103 µM and the TGI stood at 0.226 µM. In the assay on SK-OV-3 ovarian, the GI50 is 0.204 µM and the TGI was 0.715 µM.
In the case of `CCC(C)CC(C)CC(C)/C=C(\C)C1=C(C)CC(C)(O)O1` (stereo unspecified), the TGI in the assay on SW-620 colon is above 100 µM; with 786-0 renal it was above 100 µM; with COLO 205 colon, above 100 µM; with RPMI-8226 leukemia, 90.7 µM; with LOX IMVI melanoma, above 100 µM; with SK-OV-3 ovarian, above 100 µM.
For the compound `Cc1ccc(NC(=O)C(=O)CC(=O)c2c(C)n([O-])c3ccccc3[n+]2=O)cc1C`, the TGI with SW-620 colon, with 786-0 renal, with MALME-3M melanoma, in the assay on COLO 205 colon, in the assay with RPMI-8226 leukemia and in the assay on LOX IMVI melanoma was above 100 µM each time. The TGI in the assay with OVCAR-4 ovarian and in the assay on SK-OV-3 ovarian was above 100 µM in each case.
Take `Cc1cccc(C(=O)O)c1C(=O)c1cccc2ccccc12`: the TGI with SW-620 colon, in the assay on 786-0 renal, in the assay on MALME-3M melanoma, with COLO 205 colon, with LOX IMVI melanoma and in the assay on OVCAR-4 ovarian was above 100 µM each time. The same compound returned a TGI in the assay with SK-OV-3 ovarian above 100 µM.
Regarding `O=C(C(=O)n1ncc(Cl)c(Cl)c1=O)n1ncc(Cl)c(Cl)c1=O`, the TGI in the assay on SW-620 colon was 42.7 µM; in the assay on 786-0 renal, 44.6 µM; with MALME-3M melanoma, 48.1 µM; with COLO 205 colon it was 29 µM; in the assay on RPMI-8226 leukemia, 26.8 µM; in the assay on LOX IMVI melanoma it was above 100 µM. For the same compound, the TGI with OVCAR-4 ovarian was 36.1 µM; in the assay on SK-OV-3 ovarian, above 100 µM.
As for `COCCOc1cc(C)cc(/C=C(C)/C=C/C2=C(C)CCCC2(C)C)n1`, the TGI in the assay on SW-620 colon was above 100 µM; in the assay with 786-0 renal it was above 100 µM; in the assay on MALME-3M melanoma it was above 100 µM; with COLO 205 colon, above 100 µM; in the assay on RPMI-8226 leukemia, 52.3 µM; in the assay with LOX IMVI melanoma, above 100 µM. The TGI in the assay with OVCAR-4 ovarian and in the assay with SK-OV-3 ovarian was above 100 µM in each case.
With `CCCCCC(=O)Nc1nc2nc[nH]c2c(=O)[nH]1`, the TGI with SW-620 colon, with 786-0 renal, in the assay on MALME-3M melanoma, in the assay with COLO 205 colon, with RPMI-8226 leukemia and in the assay on OVCAR-4 ovarian was above 100 µM each time. Moreover, in the assay with SK-OV-3 ovarian, the TGI is above 100 µM.
With `COc1ccc2nc(C(=O)c3ccccc3)c(C)cc2c1`, the TGI in the assay with SW-620 colon is above 37.4 µM; in the assay on 786-0 renal, 38.1 µM; with MALME-3M melanoma it was above 39.1 µM; in the assay with COLO 205 colon, above 34.5 µM; in the assay on RPMI-8226 leukemia, above 100 µM; in the assay with LOX IMVI melanoma, above 100 µM. Further, the figures for the TGI in the assay on OVCAR-4 ovarian and in the assay with SK-OV-3 ovarian were above 100 µM and 15.8 µM, respectively.
Turning to `N#Cc1ccccc1NC(=O)C(=O)C1NC(=S)NC1=O` (stereo unspecified), the TGI in the assay on SW-620 colon, with 786-0 renal, in the assay with MALME-3M melanoma, with COLO 205 colon, with RPMI-8226 leukemia and in the assay on LOX IMVI melanoma was above 100 µM in each case. Besides, in the assay on OVCAR-4 ovarian, the TGI was above 100 µM.
`CC1OC(=O)C(O)=C1O` (stereo unspecified): the TGI in the assay on SW-620 colon, in the assay on 786-0 renal, in the assay on MALME-3M melanoma, in the assay on COLO 205 colon, with RPMI-8226 leukemia and in the assay on LOX IMVI melanoma was above 100 µM each time. Further, the TGI in the assay with OVCAR-4 ovarian and in the assay on SK-OV-3 ovarian was above 100 µM in each case.
On to `CC(C)c1cc(C(C)C)c(S(=O)(=O)N=[N+]=[N-])c(C(C)C)c1`, for which the TGI in the assay with SW-620 colon was above 100 µM; with 786-0 renal, above 100 µM; in the assay with MALME-3M melanoma, above 100 µM; with COLO 205 colon, above 100 µM; in the assay with RPMI-8226 leukemia, 97.6 µM; in the assay with LOX IMVI melanoma, above 100 µM. The TGI in the assay with OVCAR-4 ovarian and in the assay on SK-OV-3 ovarian was above 100 µM each time.
Turning to `COc1ccc(C2=Nc3ccccc3SC(C)C2)cc1OC` (stereo unspecified), the TGI in the assay with SW-620 colon came out at 18.6 µM; with 786-0 renal, 30.2 µM; with MALME-3M melanoma, 42.8 µM; with COLO 205 colon it was 40.6 µM; in the assay on RPMI-8226 leukemia, 38.4 µM; in the assay on LOX IMVI melanoma it was 32.9 µM. Further, the figures for the TGI with OVCAR-4 ovarian and in the assay on SK-OV-3 ovarian were 57.4 µM and 39.5 µM, respectively.
`NC1c2ccccc2Nc2ccccc21`: the TGI with SW-620 colon came to 14.4 µM; in the assay with 786-0 renal, 15.9 µM; with MALME-3M melanoma, 19 µM; in the assay with COLO 205 colon, 6.52 µM; in the assay with RPMI-8226 leukemia, 19.6 µM; in the assay on LOX IMVI melanoma, 13.2 µM. Also, in the assay on SK-OV-3 ovarian, the TGI is 23.6 µM.
As to `ClCc1ccccc1Cn1cnc2ncnc(Cl)c21`, the GI50 in the assay with SW-620 colon was 2.24 µM; in the assay on 786-0 renal, 4.02 µM; with COLO 205 colon, 4.33 µM; with MCF7 breast it was 3.64 µM; in the assay on PC-3 prostate it was 4.51 µM; with RPMI-8226 leukemia, 2.09 µM. For the same compound, the GI50 in the assay with LOX IMVI melanoma was 1.34 µM; in the assay with OVCAR-4 ovarian it was 4.94 µM; in the assay with SK-OV-3 ovarian, 7.57 µM. Further, the TGI is 4.72 µM with SW-620 colon; 12.8 µM in the assay with 786-0 renal; above 100 µM in the assay on COLO 205 colon; above 100 µM in the assay with MCF7 breast; 19.2 µM in the assay with PC-3 prostate; 5.45 µM in the assay with RPMI-8226 leukemia. For the same compound, the TGI turned out to be 3.07 µM in the assay with LOX IMVI melanoma, 20.5 µM with OVCAR-4 ovarian and 26.8 µM in the assay with SK-OV-3 ovarian.
